Paper PMC10104807, “Modulation of tau tubulin kinases (TTBK1 and TTBK2) impacts ciliogenesis” (Scientific Reports, 2023)
Where “and” joins values, the source holds several entries; their conditions need not be identical. Identical values can stand only once. Like-named read-outs stand apart in the source and are kept apart here.

How the values were obtained:
Assay in all cases: Eurofins enzymatic radiometric kinase assay
Format in all cases: biochemical
[1] = target: T1, TAOK1 (Homo sapiens, UniProt Q7L7X3); conditions: ATP at Km, duplicate
T1 construct: purchased Eurofins
T1 sequence (Q7L7X3 1-1001): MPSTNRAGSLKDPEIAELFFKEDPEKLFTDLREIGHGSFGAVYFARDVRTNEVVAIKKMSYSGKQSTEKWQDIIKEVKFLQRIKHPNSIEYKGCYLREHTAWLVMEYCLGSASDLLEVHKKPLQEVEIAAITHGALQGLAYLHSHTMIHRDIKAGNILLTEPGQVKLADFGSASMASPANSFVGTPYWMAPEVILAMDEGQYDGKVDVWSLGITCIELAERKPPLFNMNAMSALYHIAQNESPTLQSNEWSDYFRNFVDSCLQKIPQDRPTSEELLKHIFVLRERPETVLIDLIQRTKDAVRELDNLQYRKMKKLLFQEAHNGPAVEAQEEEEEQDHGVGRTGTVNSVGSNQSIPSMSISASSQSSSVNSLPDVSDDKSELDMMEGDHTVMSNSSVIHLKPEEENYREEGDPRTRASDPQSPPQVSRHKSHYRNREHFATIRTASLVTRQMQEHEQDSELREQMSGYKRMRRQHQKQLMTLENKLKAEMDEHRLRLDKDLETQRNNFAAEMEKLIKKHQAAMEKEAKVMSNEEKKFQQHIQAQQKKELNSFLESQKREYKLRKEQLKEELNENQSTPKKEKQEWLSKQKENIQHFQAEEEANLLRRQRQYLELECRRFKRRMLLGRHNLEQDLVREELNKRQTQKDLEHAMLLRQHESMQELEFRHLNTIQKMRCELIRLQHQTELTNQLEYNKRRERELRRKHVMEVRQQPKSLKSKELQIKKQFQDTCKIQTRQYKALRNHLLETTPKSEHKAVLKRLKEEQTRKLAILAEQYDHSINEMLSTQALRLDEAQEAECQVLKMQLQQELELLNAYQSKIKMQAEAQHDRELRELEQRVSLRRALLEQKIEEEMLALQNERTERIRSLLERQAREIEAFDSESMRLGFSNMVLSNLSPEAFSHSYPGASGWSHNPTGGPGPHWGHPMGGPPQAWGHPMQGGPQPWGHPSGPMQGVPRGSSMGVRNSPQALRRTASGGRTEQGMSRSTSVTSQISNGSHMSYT
Experimental: (§1) The column labeled “# < 10 PoC in enzyme panel” in Table 1 reports the number of kinases in this 17-member panel inhibited > 90% by each analog.
(§2) Details about the substrate used, protein constructs, controls, and assay protocol for these kinase assays are available at the Eurofins website: https://www.eurofinsdiscoveryservices.com. Reaction Biology Corp. (RBC) radiometric HotSpot kinase assays were carried out at the Km value for ATP in dose–response (10-pt curve) format for MYLK4, RIPK5, and YSK4 in Table S2. Details about the substrate used, protein constructs, controls, and assay protocol for these kinase assays are available at the RBC website: https://www.reactionbiology.com/list-kinase-targets-us-facility. SignalChem developed an ADP-Glo assay to test for enzymatic inhibition of PIKfyve in dose–response (10-pt curve) format in duplicate.

[2] = target: T2, TAOK2 (Homo sapiens, UniProt Q9UL54); conditions: ATP at Km, duplicate
T2 construct: purchased Eurofins
T2 sequence (Q9UL54 1-1235): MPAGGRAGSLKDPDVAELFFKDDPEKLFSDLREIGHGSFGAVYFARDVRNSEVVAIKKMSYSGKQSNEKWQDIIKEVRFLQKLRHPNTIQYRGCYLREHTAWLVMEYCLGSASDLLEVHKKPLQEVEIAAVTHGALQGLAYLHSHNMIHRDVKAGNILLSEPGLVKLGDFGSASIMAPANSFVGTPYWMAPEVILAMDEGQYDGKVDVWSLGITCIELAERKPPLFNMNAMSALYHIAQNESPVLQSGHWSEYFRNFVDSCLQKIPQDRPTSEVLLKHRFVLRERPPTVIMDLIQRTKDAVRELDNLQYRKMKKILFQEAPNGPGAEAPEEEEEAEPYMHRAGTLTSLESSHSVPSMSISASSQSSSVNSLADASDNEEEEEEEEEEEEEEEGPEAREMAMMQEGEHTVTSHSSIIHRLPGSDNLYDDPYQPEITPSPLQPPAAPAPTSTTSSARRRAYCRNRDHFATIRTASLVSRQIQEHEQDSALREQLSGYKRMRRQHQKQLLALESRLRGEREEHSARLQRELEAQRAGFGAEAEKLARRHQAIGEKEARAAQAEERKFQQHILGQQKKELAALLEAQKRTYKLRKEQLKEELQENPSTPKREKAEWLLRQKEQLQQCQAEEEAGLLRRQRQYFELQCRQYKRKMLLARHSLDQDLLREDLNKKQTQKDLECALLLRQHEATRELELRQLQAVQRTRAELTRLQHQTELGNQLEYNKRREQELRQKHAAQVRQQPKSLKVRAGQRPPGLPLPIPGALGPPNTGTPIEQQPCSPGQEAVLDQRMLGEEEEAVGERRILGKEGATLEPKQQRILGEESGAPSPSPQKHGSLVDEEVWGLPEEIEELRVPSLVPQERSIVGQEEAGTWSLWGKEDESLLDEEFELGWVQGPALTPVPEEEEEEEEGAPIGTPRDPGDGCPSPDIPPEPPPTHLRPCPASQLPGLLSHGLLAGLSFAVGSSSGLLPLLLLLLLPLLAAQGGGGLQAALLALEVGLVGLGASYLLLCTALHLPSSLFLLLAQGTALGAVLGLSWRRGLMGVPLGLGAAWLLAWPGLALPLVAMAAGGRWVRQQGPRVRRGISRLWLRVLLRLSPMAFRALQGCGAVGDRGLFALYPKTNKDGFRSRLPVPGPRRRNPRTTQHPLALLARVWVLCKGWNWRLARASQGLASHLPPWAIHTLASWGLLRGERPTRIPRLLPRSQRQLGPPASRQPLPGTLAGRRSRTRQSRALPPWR
Experimental: as §1, §2

[3] = target: T3, TSSK1 (Homo sapiens, UniProt Q9BXA7); conditions: ATP at Km, duplicate
T3 construct: purchased Eurofins (radiometric) / Eurofins DiscoverX scanMAX / Reaction Biology / SignalChem
T3 sequence (Q9BXA7 1-367): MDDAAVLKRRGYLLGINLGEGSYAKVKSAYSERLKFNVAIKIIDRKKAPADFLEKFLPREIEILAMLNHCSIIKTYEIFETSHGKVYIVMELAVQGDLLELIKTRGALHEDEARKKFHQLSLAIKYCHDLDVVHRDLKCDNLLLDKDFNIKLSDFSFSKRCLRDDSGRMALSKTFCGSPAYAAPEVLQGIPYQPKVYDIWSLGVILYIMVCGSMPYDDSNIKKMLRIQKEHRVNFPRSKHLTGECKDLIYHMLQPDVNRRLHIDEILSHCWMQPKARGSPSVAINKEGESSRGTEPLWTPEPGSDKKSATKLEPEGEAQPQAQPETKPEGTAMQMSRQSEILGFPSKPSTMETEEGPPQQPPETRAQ
Experimental: as §1, §2

[4] = target: T4, TTBK1 (Homo sapiens, UniProt Q5TCY1); conditions: for TTBK1 PoC: 1 μM, duplicate, lower = greater inhibition
T4 construct: purchased Eurofins
T4 sequence (Q5TCY1 whole entry): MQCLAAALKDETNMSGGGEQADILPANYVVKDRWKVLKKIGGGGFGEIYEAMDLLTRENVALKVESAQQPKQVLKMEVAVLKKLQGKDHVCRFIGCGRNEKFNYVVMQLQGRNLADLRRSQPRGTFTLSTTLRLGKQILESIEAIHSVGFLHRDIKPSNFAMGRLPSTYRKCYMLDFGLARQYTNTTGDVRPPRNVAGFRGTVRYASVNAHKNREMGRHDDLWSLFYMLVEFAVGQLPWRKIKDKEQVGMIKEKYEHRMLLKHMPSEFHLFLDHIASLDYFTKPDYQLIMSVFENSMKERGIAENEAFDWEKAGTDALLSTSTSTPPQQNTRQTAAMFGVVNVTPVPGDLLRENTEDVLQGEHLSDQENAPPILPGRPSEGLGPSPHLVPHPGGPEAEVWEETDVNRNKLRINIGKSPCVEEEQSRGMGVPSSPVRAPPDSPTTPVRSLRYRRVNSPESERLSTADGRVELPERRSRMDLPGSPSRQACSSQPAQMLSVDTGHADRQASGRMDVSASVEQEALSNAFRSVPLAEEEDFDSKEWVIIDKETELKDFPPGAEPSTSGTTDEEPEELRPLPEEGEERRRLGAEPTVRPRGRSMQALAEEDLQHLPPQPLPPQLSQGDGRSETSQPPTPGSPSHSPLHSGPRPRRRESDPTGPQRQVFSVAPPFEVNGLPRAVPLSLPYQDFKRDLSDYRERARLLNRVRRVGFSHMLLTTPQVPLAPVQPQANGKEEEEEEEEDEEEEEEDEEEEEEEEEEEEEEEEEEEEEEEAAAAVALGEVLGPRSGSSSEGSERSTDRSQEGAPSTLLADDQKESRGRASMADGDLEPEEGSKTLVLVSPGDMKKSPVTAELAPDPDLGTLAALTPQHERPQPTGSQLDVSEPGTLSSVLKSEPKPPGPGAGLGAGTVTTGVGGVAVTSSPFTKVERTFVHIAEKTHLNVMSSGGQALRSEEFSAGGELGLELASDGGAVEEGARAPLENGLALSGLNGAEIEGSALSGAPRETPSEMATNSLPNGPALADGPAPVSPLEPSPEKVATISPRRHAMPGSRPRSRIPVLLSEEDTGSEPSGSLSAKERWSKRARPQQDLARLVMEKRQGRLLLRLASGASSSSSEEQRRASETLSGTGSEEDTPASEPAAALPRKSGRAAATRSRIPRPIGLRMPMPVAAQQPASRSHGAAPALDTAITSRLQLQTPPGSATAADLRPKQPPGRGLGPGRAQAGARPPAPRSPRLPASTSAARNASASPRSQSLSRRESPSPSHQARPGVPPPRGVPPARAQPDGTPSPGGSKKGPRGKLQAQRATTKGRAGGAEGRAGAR
Experimental: as §1, §2

| Structure (SMILES) | TAOK1 PoC at 1 μM [1] | TAOK2 PoC at 1 μM [2] | TSSK1 PoC at 1 μM [3] | IC50 [4] | TTBK1 PoC ([4]; ATP at Km) | IC50 ([4]; ATP at Km, dose–response 9-pt curve) |
| --- | --- | --- | --- | --- | --- | --- |
| CC(C)(O)C#Cc1ccc2[nH]c3c(c2c1)-c1nc(N)ncc1CCC3 [AMG28, reference compound] | 2 PoC | 26 PoC | 10 PoC | – | – | – |
| CC(C)(O)C#Cc1ccc2[nH]c3c(c2c1)-c1nc(N)ncc1CC3 [Compound 1] | 5 PoC | 28 PoC | 48 PoC | > 1 µM | 78 PoC | 3.14 µM |
| CC(C)(O)C#Cc1ccc2[nH]c3c(c2c1)-c1nc(N)ncc1CCCC3 [Compound 2] | 65 PoC | 83 PoC | 82 PoC | – | 92 PoC and 92/NT^[c] PoC | – |
| CC(C)(O)C#Cc1ccc2[nH]cc(-c3ccnc(N)n3)c2c1 [Compound 3] | 7 PoC | 12 PoC | 30 PoC | – | 43 PoC | – |
| COC(C)(C)C#Cc1ccc2[nH]c3c(c2c1)-c1nc(N)ncc1CCC3 [Compound 11] | 73 PoC | 44 PoC | 89 PoC | – | 117 PoC and 117/NT PoC | – |
